The results in this text go back to publication PMC9960821, “Evaluation of Rhenium and Technetium-99m Complexes Bearing Quinazoline Derivatives as Potential EGFR Agents” (Molecules, 2023).

One assay concerns the target T1, EGFR (Homo sapiens, UniProt P00533).
T1 construct: by immunoblotting in intact A431 cells that overexpress EGFR; endogenous in cells; host or cells: A431 (human epidermoid vulvar carcinoma)
Kind of assay: Inhibition of EGFR phosphorylation in intact A431 cells (immunoblotting). In kind it is cell-based. The settings on record: 2 h compound then EGF 20 ng/mL 5 min, Western blot. As to the method: Complex 5a was evaluated for its potency to inhibit EGFR phosphorylation in various concentrations by immunoblotting in intact A431 cells that overexpress EGFR (Figure 3). In addition, the percentage of EGFR phosphorylation was calculated, and a dose-response curve was performed (Figure 4).
(§1) Cell line. The in vitro biological studies were established using the human epidermoid vulvar carcinoma A431 cell line, which overexpresses EGFR. Cells were available in our laboratory from previous studies. Cells were maintained in high glucose D-MEM medium with L-glutamine (PAA Laboratories GmbH, Pasching, Austria) and supplemented with 10% fetal bovine serum (PAA Laboratories GmbH) and penicillin/streptomycin (PAA Laboratories GmbH) 100 UI/100 μg per mL, in 5% CO2 incubator at 37 °C.
The inhibition of EGFR phosphorylation was studied as described in the literature. A431 cells (5 × 10^5 cells/well) were seeded in 6-well plates and incubated for 24 h. Then, the medium was replaced with fresh medium without fetal bovine serum. […] Protein band quantification was performed using Image-J software, and the percentage of EGFR phosphorylation inhibition was calculated using GraphPad Prism 9.0 software.

The subject of a further assay is A431 cells. Put plainly: In vitro growth inhibition (MTT assay) in A431 cells. In kind it is cell-based, human. The settings on record: read-out: Inhibition of cell growth IC50. As to the method:
This assay measures the amount of MTT reduction by mitochondrial dehydrogenase and assumes that cell viability (corresponding to the reductive activity) is proportional to the production of purple formazan that is measured spectrophotometrically.
as §1
The in vitro cytotoxicity of the synthesized ligands and their rhenium complexes was determined by the MTT method. The A431 cells were seeded in 96-well plates at a density of 4000 cells per 100 μL per well and incubated for 24 h so that they were attached to the wells. After 24 h, the studied derivatives were dissolved in DMSO ([…]) and further diluted in D-MEM in various concentrations. […] The six concentrations of each derivative and control existed quadrupled into the experiment. The derivatives and the cells were incubated for 72 h. After three days, the medium was removed, and the cells were incubated […] in the presence of MTT (1 mg/mL 3-[4,5-dimethylthiazol-2-yl]-2,5-diphenyltetrazolium bromide, Sigma, Saint Louis, MO, USA) in RPMI (PAA Laboratories GmbH, Pasching, Austria) without phenol red for 2 h at 37 °C. The MTT solution was removed, and 2-propanol was added to each well to stop the cleavage of the tetrazolium ring by dehydrogenase enzymes which convert MTT to an insoluble purple formazan in living cells. The plates were then agitated at room temperature for about 15–20 min, and the level of the colored formazan derivative was determined by measuring optical density (OD) on an ELISA reader (540/620 nm). […] Cell proliferation assay was performed three times for each compound.

[1] abbreviates: A431 cancer cell line, MTT, 72 h, mean ± SD of three experiments.
Where [2] appears, read: Homo sapiens, A-431, A431 cancer cell line, MTT, 72 h, mean ± SD of three experiments.

Like-named read-outs stand apart in the source and are kept apart here.

T1 sequence (P00533 25-1210): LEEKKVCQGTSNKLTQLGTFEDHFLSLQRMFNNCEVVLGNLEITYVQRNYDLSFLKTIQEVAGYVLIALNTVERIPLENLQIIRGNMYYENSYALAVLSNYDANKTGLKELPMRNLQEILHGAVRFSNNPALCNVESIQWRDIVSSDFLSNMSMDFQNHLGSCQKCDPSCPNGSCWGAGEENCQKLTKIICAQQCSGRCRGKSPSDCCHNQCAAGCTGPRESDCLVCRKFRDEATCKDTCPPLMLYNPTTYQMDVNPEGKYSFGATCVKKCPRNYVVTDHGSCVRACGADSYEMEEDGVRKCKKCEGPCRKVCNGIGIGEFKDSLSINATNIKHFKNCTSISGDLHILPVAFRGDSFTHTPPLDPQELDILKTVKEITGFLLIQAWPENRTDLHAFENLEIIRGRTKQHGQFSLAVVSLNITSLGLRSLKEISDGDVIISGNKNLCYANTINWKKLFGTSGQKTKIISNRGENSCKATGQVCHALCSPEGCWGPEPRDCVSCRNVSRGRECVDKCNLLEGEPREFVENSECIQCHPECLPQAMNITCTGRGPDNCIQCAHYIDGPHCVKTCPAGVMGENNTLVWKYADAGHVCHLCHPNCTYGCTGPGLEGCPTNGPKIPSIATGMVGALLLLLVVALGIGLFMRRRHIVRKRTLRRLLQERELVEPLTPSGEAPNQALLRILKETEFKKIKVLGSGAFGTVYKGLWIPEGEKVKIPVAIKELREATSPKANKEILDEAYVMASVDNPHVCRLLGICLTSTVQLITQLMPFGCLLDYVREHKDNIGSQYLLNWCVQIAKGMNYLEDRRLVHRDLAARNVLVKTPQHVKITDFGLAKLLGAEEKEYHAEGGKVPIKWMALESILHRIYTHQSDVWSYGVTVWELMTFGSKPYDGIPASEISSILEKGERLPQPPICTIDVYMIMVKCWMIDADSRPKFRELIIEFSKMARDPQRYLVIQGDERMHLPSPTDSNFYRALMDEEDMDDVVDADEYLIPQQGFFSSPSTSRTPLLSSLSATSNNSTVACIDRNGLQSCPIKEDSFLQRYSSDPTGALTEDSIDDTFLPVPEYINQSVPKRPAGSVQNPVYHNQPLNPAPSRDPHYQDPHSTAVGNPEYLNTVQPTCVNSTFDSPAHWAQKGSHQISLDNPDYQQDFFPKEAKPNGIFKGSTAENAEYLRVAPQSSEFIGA

By IC50 is commonly meant the concentration that gives 50% inhibition. For `O=C([O-])CN(CCCCCC(=O)Nc1ccc2ncnc(Nc3cccc(Br)c3)c2c1)Cc1ccccn1.[C-]#[O+].[C-]#[O+].[C-]#[O+].[Re+]` [Compound 5a, fac-[Re(NNO)(CO)3]], the IC50 is 0.0261 µM against EGFR and 8.85 ± 2.62 µM in the assay on A431 cells (setting [1]).

Take `NC(CSCCCCCC(=O)Nc1ccc2ncnc(Nc3cccc(Br)c3)c2c1)C(=O)[O-].[C-]#[O+].[C-]#[O+].[C-]#[O+].[Re+]` (stereo not drawn) [Compound 7a, fac-[Re(SNO)(CO)3]]: the IC50 with A431 cells (setting [1]) worked out at 29.6 ± 3.63 µM.

For `NC(CSCCCCCC(=O)Nc1ccc2ncnc(Nc3cccc(Br)c3)c2c1)C(=O)O` (stereo not drawn) [Compound 6, 6-(cysteine-N-hexanoyl)-4-[(3-bromophenyl)amino]-quinazoline], in the assay on A431 cells (setting [2]), the IC50 was 4.12 ± 0.92 µM.

On to `CCOC(=O)CN(CCCCCC(=O)Nc1ccc2ncnc(Nc3cccc(Br)c3)c2c1)Cc1ccccn1` [Compound 4, 6-(pyridine-2-methyl N, N, acetic ethyl ester-hexanoyl)-4-[(3-bromophenyl)amino]-quinazoline], for which, in the assay on A431 cells (setting [2]), the IC50 stood at 25.6 ± 3.87 µM.

Consider `Nc1ccc2ncnc(Nc3cccc(Br)c3)c2c1` [Compound 1, 6-amino-4-[(3-bromophenyl)amino] quinazoline, reference compound], for which, in the assay with A431 cells (Homo sapiens, A-431, 72 h), the concentration for half-maximal inhibition (IC50) worked out at 2.3 ± 0.3 µM.
